Measured values taken from patent publication US7910577B2 (priority 2004, dated 2011).

Columns and labels:
[1] = particle size, Horiba LA 910 particle size analyzer; settings: unmilled drug crystals, before incorporation into nanoparticulate formulation
[2] = cited from earlier work

Q: Which results are given for `Cc1cc2c(s1)Nc1ccccc1N=C2N1CCN(C)CC1` [Olanzapine, 2-methyl-4-(4-methyl-1-piperazinyl) -10H-thieno[2,3-b][1,5]benzodiazepine]?
A: mean particle size [1]: 137.08 microns; solubility in water [2]: practically insoluble in water
